Results taken from a melting point compilation (Tetko et al.).

SMILES	melting point
CC(=O)c1ccc(C)cc1	28 °C
COCc1cc(=O)oc2cc(O)c(Cl)cc12	196 to 198 °C
Cc1nc(-c2cccc(-n3cccc3)c2)sc1C(=O)NN	185 to 186 °C
CN(C)[Si](C)(N(C)C)N(C)C	-11 °C
CNCCCCCCN(C)N(O)N=O	102 to 108 °C
Cc1ccc(C)n1-c1ccsc1C(=O)NN	135 to 136 °C
CC(c1ccc(OC(F)=C(F)F)cc1)(c1ccc(OC(F)=C(F)F)cc1)c1ccc(OC(F)=C(F)F)cc1	31 to 32 °C
Cc1csc(C)c1C	-26.2 °C
O=C(O)C(F)(F)C(F)(F)C(F)(F)C(F)(F)C(F)(F)C(F)(F)C(F)(F)C(F)(F)C(F)(F)C(F)(F)C(F)(F)F	112 to 114 °C
N#Cc1cnc2ccccc2c1	109 °C
CCOC(=O)[C@H](Cc1ccc(O)cc1)NC(=O)c1ccccc1	118 to 121 °C
CC(C)(C)C(=O)CC(=O)C(F)(F)C(F)(F)C(F)(F)F	38 °C
Cn1ncc(C=O)c1N	161 to 163 °C
CC12CCC(C(C(c3ccccc3)c3ccccc3)C1=O)C2(C)C (configuration not stated)	137 °C
COc1cc(O)c2c(c1)OC(c1ccc(O)cc1)CC2=O (configuration not stated)	152 °C
CC1CCSCC1	-28 °C
O=C1Cc2c1ccc1ccccc21	72 °C
CC1(c2ccccc2)CC(C(=NO)c2cc3ccccc3o2)C1 (configuration not stated)	200 to 201 °C
CC(=O)OC1CC2(O)C(C)C(=O)C3(C(O)CC4C(C)(C)CCC(OC(C)=O)C4(C)C13)C2O (configuration not stated)	234 °C
c1ccc(-c2nnc3n2CN(c2ccccc2)CS3)cc1	205 °C
Cc1csc(C(=O)Cl)c1Cl	57 to 58 °C
ClC(Cl)c1ccc(C(Cl)Cl)cc1	92 to 93 °C
CSc1scc2c1C(=NO)CC(C)(C)C2	151 to 154 °C

SMILES	melting point
Clc1cc(Cl)c2ccccc2c1	62.3 °C
COc1cc(C[N+](=O)[O-])ccc1OCc1ccccc1	153 °C
Cc1nc(-c2cccc(N)c2)no1	95 to 96 °C
CCOC(=O)c1cc2c(oc1=O)-c1ccc(OC)cc1CC2	141 to 142 °C
CC12CC3(C)CC(C)(C1)CC(Br)(C2)C3	101 to 102 °C
O=C(c1cccs1)c1noc(-c2cccc3ccccc23)c1S(=O)(=O)c1ccccc1	124 °C
Cc1ccc(C(N)=S)cc1	163 to 168 °C
Cc1n[nH]c(C)c1Cc1ccccc1	119 °C
Cc1cccc(Nc2ccccc2C(=O)O)c1C	231 °C
CC1CCCC=CC2CC(O)CC2C(O)C=CC(=O)O1 (configuration not stated)	201 to 205 °C
CCCCCCCC(=O)OCCCCC	-34.8 °C
O=S(=O)(Cl)c1ccccc1OC(F)(F)F	31 °C
Cc1cc(C)c(C2(C)CC(C(=NO)c3cc4ccccc4o3)C2)c(C)c1 (configuration not stated)	189 to 190 °C
N#CC1=C(C#N)C(=O)C(NCCc2ccccc2)=C(Cl)C1=O	265 to 267 °C
CCCCCCCC(=O)CCCCCCC	43 °C
COc1cc2c(cc1O)CN(C1CC=CC(=O)C1)CC2 (configuration not stated)	254 to 257 °C
CCOC(=O)/C=C/c1ccc2ccc(=O)[nH]c2c1	209 to 210 °C
CCCCOC(=O)C1(O)c2ccccc2-c2ccccc21	71 °C
Cc1ccccc1NC=C1C(=O)NN=C1c1c(O)c2ccccc2n(C)c1=O	288 °C
Cc1ccc2ncccc2c1[N+](=O)[O-]	118 to 120 °C
CC(C)NCC(O)COc1cccc2[nH]ccc12 (configuration not stated)	170 °C
CNC(=O)CC#N	82 to 84 °C
COC(=O)c1cc(O)nc(O)n1	244 °C

SMILES	melting point
O=C(O)CCC(F)(F)F	31 °C
COc1c(Cl)c(Cl)c(Cl)c(Cl)c1OC	90 °C
Nc1c(Cl)cccc1C(=O)O	190 °C
CN(C)c1ccc(CNC2=CC(=O)c3ccccc3C2=O)cc1	165 to 167 °C
O=C(O)c1ccnc(C(=O)O)c1	249 °C
Fc1ccc(S)cc1F	34 to 38 °C
Nc1c(C=O)cc(C=O)c2nc(-c3ccccc3)c(-c3ccccc3)nc12	289 °C
CSc1nc2cc(NCc3ccccc3Cl)ccc2[nH]1	207 to 209 °C
Nc1ccc(Nc2ccccc2)cc1	74 °C
Clc1nccc(-c2ccccc2)n1	86 to 87 °C
C#CC(C)(C)Cl	-61 °C
CCC1=C(C)C2=CCC=CC2=N1	64 °C
CCOC(=O)c1c(Nc2ccc(OC)cc2)sc2c(-c3ccc(Cl)cc3)c(C#N)c(N)nc12	220 to 224 °C
Cc1cccc2cc3ccc4ccccc4c3cc12	118 °C
CCOC(=O)[C@H](CCc1ccccc1)N[C@@H](C)C(=O)O	148 to 153 °C
CC1(C)OCC2OC3OC(C)(C)OC3C2O1 (configuration not stated)	42 to 46 °C
O=C(Nc1ccc([N+](=O)[O-])cc1)C(C(F)(F)F)(C(F)(F)F)C(F)(F)F	280 to 282 °C
CSc1nc2cc(N=Cc3ccc4c(c3)OCO4)ccc2[nH]1	213 to 215 °C
CCC(C)CC(C)(C)C (configuration not stated)	-120 °C
COC(=O)c1ccc2c(c1)OCO2	53 °C
CCOC(=O)c1c(C)[nH]c(=O)[nH]c1=S	150 °C
Cc1cnc2ccccc2c1C	73.5 °C
O=C(O)c1cc([N+](=O)[O-])cc(S(=O)(=O)Nc2ccccc2)c1	177 °C

SMILES	melting point
O=C1C=CC=C2CC1=CC=CC2=O	147 °C
OC(CCCN1CCCCC1)(c1ccccc1)c1ccccc1	104 °C
Oc1ccccc1CNCc1ccccc1O	162 °C
N#CC1(O)CN2CCC1CC2 (configuration not stated)	156 to 159 °C
N#Cc1cc(/N=C/C=C/c2ccccc2)n(-c2c(Cl)cc(C(F)(F)F)cc2Cl)n1	160 °C
OCc1cc(-c2ccco2)on1	90 to 91 °C
CCOc1ccc(-c2nnc3n2NC(c2ccc(O)c(OC)c2)S3)cc1 (configuration not stated)	133 °C
O=C(N[C@@H](Cc1cccc(F)c1)C(=O)O)OCC1c2ccccc2-c2ccccc21	156 °C
O=Cc1csc(-c2ccc(C(F)(F)F)cc2)n1	103 to 105 °C
Cc1cc(C)c(CCl)c(C)c1	40 °C
CCOC(=O)C(C#N)=C1SCCS1	106 °C
CCOC(=O)NC(=S)Nc1sc2c(c1C(=O)OCC)CCCC2	187 to 190 °C
CCCCOC(=O)C(=O)C1C(C)CC2C3CC(F)C4=CC(=O)C=CC4(C)C3C(O)CC21C (configuration not stated)	195 °C
CCOC(=O)N1c2ccccc2C=CC1OCC (configuration not stated)	64.5 °C
C=CCNC(SC)=C(C#N)C#N	91 °C
ClC(C(Cl)(Cl)Cl)C(Cl)(Cl)Cl	11 °C
Brc1ccc2[nH]cnc2c1	130 to 131 °C
O=C(OCC1CCC2OC2C1)C1CCC2OC2C1 (configuration not stated)	-37 °C
CNC1=CC(=O)C2(C)CCC1C2(C)C (configuration not stated)	195 °C
Sc1ccccc1	-14.9 °C
CCC(CC)(CBr)CBr	40 °C
NN1C(=O)c2ccccc2C1=O	200 to 202 °C
NC(=S)CS(=O)(=O)c1ccc(Cl)cc1	188 to 192 °C
